Patent US20100272642A1, “PET PROBE HAVING AN ALKOXY GROUP SUBSTITUTED BY FLUORINE AND HYDROXY GROUP” (TOHOKU UNIVERSITY, priority 2007, published 2010)
“Also recorded” adds a separate entry of the source.

What was measured:
amyloid β protein = biological target: T1, amyloid β protein (Homo sapiens, UniProt P05067); test: Staining test on the brain section of patients with Alzheimer's disease; type: binding; settings: 100 μM compound in 50% ethanol, 10 minutes, fluorescence microscope
T1 construct: tissue Choju Medical Institute in Fukushimura Hospital; host or cells: Paraffin-embedded post-mortem human brain sections (temporal lobe or hippocampus)
T1 sequence (P05067 672-713 limits assumed): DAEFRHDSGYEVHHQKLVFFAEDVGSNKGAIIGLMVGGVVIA
Text: The procedure of […] of the compounds of the present invention on the brain section of patients with Alzheimer's disease is explained as follows.
(1) The brain samples from the temporal lobe or hippocampus of patients pathologically definitely diagnosed as having Alzheimer's disease and normal elderly individuals were used. The samples were obtained from Choju Medical Institute in Fukushimura Hospital, our collaborative research institute, and the consent for the use for research purpose was obtained from the patients' deceased family members (Fukushimura Hospital, Ethic Committee Approval No. 20).
(2) The brain tissue embedded in the paraffin was thinly sectioned into 6 or 8 μm in thickness, extended on the slide glass, and dried. The paraffined brain section was deparaffined by washing with xylene 10 minutes×2, 100% ethanol 5 minutes×2, 90% ethanol 5 minutes, and running water 10 minutes in this order.
(3) As the pretreatment of staining by the compound of the present invention, the treatment to remove autofluorescence by lipofuscin was conducted. […]
(4) From 100 μM of the compound solution of the present invention dissolved in 50% ethanol, about 150 μl was added dropwise, and was reacted for 10 minutes. After being soaked in the tap water 5 times, it was encapsulated with Flour Save Reagent (Calbiochem) and examined with a fluorescence microscope (Nikon, Eclipse 80i). […]

[1] = Evaluation of blood-brain barrier permeability and osseous accumulation of the [18F] labeled compound in mice; type: in vivo, mouse; settings: for % ID/g or ml (mean ± standard deviation), Blood plasma / % ID/g or ml (mean ± standard deviation), Bone / % ID/g or ml (mean ± standard deviation), Brain: male ICR mice, tail vein administration; for % ID/g or ml (mean ± standard deviation), Bone: bone (femur); for osseous accumulation: mice, 2, 30, 60 minutes after administration, in words; for defluorination in vivo / wash-out from the brain: mice; for defluorination in vivo: suggested from osseous accumulation; for wash-out from the brain: compared with [18F]BF-227
Protocol: The physiological saline solution containing [^18F] BF-837 or [^18F] THK-853 was administered into the tail vein of the male ICR mice (6-7 weeks of age), and blood-brain barrier permeability and osseous accumulation of each labeled compound were evaluated based on accumulation of radioactive in the brain tissue and the bone tissue at 2, 30, 60 minutes after.
The radiochemical purity of the used physiological saline containing the labeled compound used was 95% or greater, and specific activity was 18.5 to 148 GBq/μmol, and 1.11-2.22 MBq of the labeled compound per mouse was administered. In the evaluation of radiation accumulation, the ratio of radiation per unit weight of the evaluation tissue against the whole radiation administered (% Injected Dose/g of tissue; % ID/g) was used as the index. For measurement of the radiation, the gamma counter (1480 WIZARD, PerkinElmer, Inc.) was used. The experimental procedure was as follows. The labeled compound was administered into the caudal vein and dislocation in the cervical spine of the mice was conducted under the ether anesthesia at 2, 30, and 60 minutes after, and after promptly harvesting the blood from the heart, the whole brain (including the cerebellum, brain stem) and the femur were removed.

| binding to amyloid β protein in the brain section (amyloid β protein) | % ID/g or ml (mean ± standard deviation), Blood plasma ([1]; 2 minutes after) | % ID/g or ml (mean ± standard deviation), Blood plasma ([1]; 30 minutes after) | % ID/g or ml (mean ± standard deviation), Blood plasma ([1]; 60 minutes after) | % ID/g or ml (mean ± standard deviation), Bone ([1]; 2 minutes after) | % ID/g or ml (mean ± standard deviation), Bone ([1]; 30 minutes after) | % ID/g or ml (mean ± standard deviation), Bone ([1]; 60 minutes after) | % ID/g or ml (mean ± standard deviation), Brain ([1]; 2 minutes after) | % ID/g or ml (mean ± standard deviation), Brain ([1]; 30 minutes after) | % ID/g or ml (mean ± standard deviation), Brain ([1]; 60 minutes after) | defluorination in vivo [1] | wash-out from the brain [1] | SMILES | osseous accumulation [1] |
| --- | --- | --- | --- | --- | --- | --- | --- | --- | --- | --- | --- | --- | --- |
| bound to amyloid β protein | – | – | – | – | – | – | – | – | – | – | – | CNc1ccc(-c2nc3ccc(OC(CO)CF)cc3s2)cc1 (stereo not shown) [THK-837] | – |
| bound to amyloid β protein | – | – | – | – | – | – | – | – | – | – | – | CNc1ccc(/C=C/c2ccc(OC(CO)CF)cc2)cc1 (stereo not shown) [THK-853] | – |
| – | 2.93 ± 0.08 % ID/g or ml | 2.14 ± 0.17 % ID/g or ml | 2.09 ± 0.15 % ID/g or ml | 1.59 ± 0.27 % ID/g or ml | 4.38 ± 1.24 % ID/g or ml | 7.04 ± 0.75 % ID/g or ml | 6.05 ± 0.45 % ID/g or ml | 1.91 ± 0.05 % ID/g or ml | 1.67 ± 0.14 % ID/g or ml | easily subjected to defluorination | – | CN(C)c1ncc(C=Cc2nc3ccc(OCCF)cc3o2)s1 [[^18F]BF-227, 2-[2-(2-dimethylaminothiazole-5-yl)ethenyl]-6-(2-fluoroethoxy)benzoxazole, reference compound] | time dependence marked accumulation was observed |
| – | 3.30 ± 0.17 % ID/g or ml | 1.73 ± 0.26 % ID/g or ml | 1.35 ± 0.77 % ID/g or ml | 1.80 ± 0.17 % ID/g or ml | 1.27 ± 0.11 % ID/g or ml | 1.64 ± 0.12 % ID/g or ml | 6.54 ± 0.19 % ID/g or ml | 0.94 ± 0.08 % ID/g or ml | 0.43 ± 0.03 % ID/g or ml | not subjected to defluorination | clearly more excellent | CNc1ccc(-c2nc3ccc(OC(CO)CF)cc3s2)cc1 (stereo not shown) [[^18F]THK-837] | not observed; also recorded: scarcely observed |
| – | 2.81 ± 0.37 % ID/g or ml | 2.11 ± 0.50 % ID/g or ml | 1.59 ± 0.12 % ID/g or ml | 1.64 ± 0.19 % ID/g or ml | 0.98 ± 0.20 % ID/g or ml | 0.96 ± 0.04 % ID/g or ml | 7.56 ± 0.87 % ID/g or ml | 1.31 ± 014 % ID/g or ml | 0.59 ± 0.04 % ID/g or ml | not subjected to defluorination | clearly more excellent | CNc1ccc(/C=C/c2ccc(OC(CO)CF)cc2)cc1 (stereo not shown) [[^18F]THK-853] | not observed; also recorded: scarcely observed |
